In a melting point compilation (Tetko et al.; mined from patent text by program, amines drawn as free bases though some values may be those of a salt):

| Structure (SMILES) | melting point [°C] |
| --- | --- |
| COc1ccc(CNc2nc(C)nc(C)c2Cl)cc1O | 165 to 168 |
| CSc1ccc2c(c1)C(=O)Cc1cc(C)ccc1O2 | 102 to 103 |
| CCOC(=O)c1c(C=O)c2ccc3oc4ccccc4c3c2n1C | 190 to 192 |
| O=C1CCc2ccc(C(F)(F)F)cc2CC1 | 78 |
| NN1C=NNC1=Cc1ccccc1 | 171 to 173 |
| O=c1[nH]c2cscc2c(=O)n1CCN1CCN(c2ccc(F)cc2)CC1 | > 250 |
| CCCC1Nc2ccc(S(=O)(=O)N3CCCCC3)cc2S(=O)(=O)N1 (stereo unspecified) | 147 to 151 |
| Cc1cncn1CC#CCn1ccn(C)c1=O | 149 to 153 |
| COC(=O)c1ccn2cc(C)nc2c1 | 149 |
| S=C(Nc1ccccc1Cl)N1CCN(c2cnccn2)CC1 | 167 to 169 |
| CCC(NS(=O)(=O)c1ccc(Cl)cc1)P(=O)(Oc1ccccc1)Oc1ccccc1 (stereo unspecified) | 136 to 138 |
| CN[C@@H](CO)Cc1ccccc1 | 69 |
| CC(c1cc(Cl)cc(Cl)c1O)c1cc(F)cc(Cc2cc(Cl)cc(Br)c2O)c1O (stereo unspecified) | 171 |
| Cc1c(Cl)ccc(C(N)=O)c1N | 206 to 208 |
| COc1ccc(S(=O)(=O)Nc2c(C(=O)NO)cc(C)c(Cc3ccccc3)c2C#N)cc1 | 175 |
| CC(C)(C)N(Cc1ccccc1)CC(O)c1ccc(OCc2ccccc2)c(N)c1 (stereo unspecified) | 68 to 69 |
| COc1ccc2ccc(N3C(=O)C4=C(SCCO4)C3O)nc2n1 (stereo unspecified) | 222 |
| COc1ccc(OCCCN2CCC(C(O)(c3ccc(F)cc3)c3ccc(F)cc3)CC2)cc1 | 107 to 108 |
| CC1CN2N=C(c3cccc(C(F)(F)F)c3)C=CC2=N1 (stereo unspecified) | 86 to 90 |
| COc1ccc2oc(C(=O)C34CC5CC(CC(C5)C3)C4)cc2c1 | 113 to 115 |
| COC(=O)c1ccc(Cn2c(C(=O)C3CCN(CCC4(c5ccccc5)CCN(C(=O)c5cc(OC)c(OC)c(OC)c5)C4)CC3)nc3ccccc32)cc1 (stereo unspecified) | 92 to 96 |
| Cc1cc(C)c2c(-c3cccc(Cl)c3)cc(=O)n(C)c2n1 | 161 to 162 |
| COc1ccccc1NS(=O)(=O)c1ccc(N2CCNC2=O)cc1 | 209 to 211 |
| Cc1cc(COc2ccc(CC(=O)O)cc2Cl)ccc1OC(C)C | 104 to 105 |
| CCCc1nc2c(N)nc3ccccc3c2n1CCCCC(=O)N(C)OC | 150 to 151 |
| NC(C(=O)O)C1CC(C(=O)O)C1C(=O)O (stereo unspecified) | 205 to 209 |

| Structure (SMILES) | melting point [°C] |
| --- | --- |
| CONC(=N)c1nc(Cl)c(-c2c(F)cc(F)cc2F)c(N2CCCO2)n1 | 192 to 193 |
| CC(C)Oc1ccc(CCCOc2nn(C)cc2CC(=O)O)c(Oc2ncc(C(F)(F)F)cc2Cl)c1 | 92 to 94 |
| Cc1nnc(-c2ccc3occ(-c4cccnc4)c3c2)o1 | 139 to 140 |
| C[C@@H](OC(=O)N1C(C)(C)COC1(C)C)C(C)(C)O | 53 |
| CCOC(=O)C1=Cc2cc([N+](=O)[O-])ccc2OC1C(F)(F)F (stereo unspecified) | 111 to 115 |
| CCOc1ccc(-c2ccc3c(c2)C=C(C(=O)OC)CCN3C=O)cc1 | 133 to 135 |
| COC1=C(OC)C(=O)C(CCCCCCCCCC(=O)N[C@H](CCC(=O)O)C(N)=O)=C(C)C1=O | 136 to 137 |
| CCCCn1ccc(-c2ccc3c(c2)OCCN3[C@H]2CC[C@H](O)CC2)c(Cl)c1=O | 178 |
| Cc1cc(-c2cccc(C(F)(F)F)c2)n2ccnc2n1 | 170 to 172 |
| CC1(C)OC(=O)C(=CC2CC2)C(=O)O1 | 91 to 92 |
| O=[N+]([O-])c1ccc(OC23CC4CC(CC(C4)C2)C3)cc1 | 132 to 134 |
| O=C(Oc1ccccc1)n1c(=O)c(F)cn(C2CC(OCc3ccccc3)C(CO)O2)c1=O (stereo unspecified) | 110 to 112 |
| CCN1CCc2ccc(Nc3ncc(Cl)c(N[C@@H]4c5ccccc5C[C@@H]4O)n3)cc2CC1 | 209 |
| Cc1nn(C)c(C)c1CNC(=O)c1ccnc(N2CCN(Cc3ccc(F)cc3)C2=O)c1 | 179 to 181 |
| Cc1cnc2c(c1)c(C#N)c(-c1ccc(S(=O)(=O)N[C@@H](C)C(F)(F)F)cn1)n2C1CCC1 | 177 to 179 |
| O=S(c1ccc(Cl)cc1)c1cc(C(F)(F)F)[nH]c1-c1ccc(Cl)cc1 (stereo unspecified) | 174 to 176 |
| CN1CCc2c(sc(N)c2C(=O)c2ccccc2)C1 | 164 to 165 |
| NC(=O)c1ccccc1N1CCc2cc(Cl)cc([N+](=O)[O-])c21 | 225 to 226 |
| COC(=O)NC(CC(=O)c1ccccc1)C(=O)O (stereo unspecified) | 132 to 135 |
| N#Cc1ccc(N(Cc2ccc(O)c(Br)c2)n2cnnc2)cc1-c1cc2ccccc2o1 | 147 to 148 |
| O=C1C2CCCC2=Nc2ccccc2N1Cc1ccc(Cl)cc1 (stereo unspecified) | 155 to 157 |
| CCOC(=O)NC(=O)CNS(=O)(=O)c1ccc(N2CCC(NC[C@H](O)c3ccc(O)c(NS(C)(=O)=O)c3)CC2)cc1 | 98 to 105 |
| O=C1C(=CO)CSc2ccc(Cl)cc21 | 103 to 104 |
| CCOC(=O)c1c(Cl)nn(C)c1S(N)(=O)=O | 121 to 123 |
| COCOCc1nc(-c2ccccc2)oc1CCc1ccc(OCc2nc(-c3ccccc3)oc2C)cc1 | 124 to 125 |
| CC(O)(COc1ccc(-c2ccc(Cl)cc2)cc1)CN1CCCC1 (stereo unspecified) | 121 to 122 |

| Structure (SMILES) | melting point [°C] |
| --- | --- |
| CC(C)n1nc(-c2c(-c3ccccc3)nn3ccc(OCc4cccnc4)cc23)ccc1=O | 145 to 146 |
| CCC(=O)NCCc1c[nH]c2cc(Cl)c(OC)cc12 | 100 to 101 |
| COc1c(Cl)ccc(-c2cc(N)c(Cl)c(C(=O)NOCC3CC3)n2)c1F | 164 to 166 |
| O=C(NCCO)c1ccc2c3c(cc([N+](=O)[O-])c2c1)NCC3CCl (stereo unspecified) | 150 to 151 |
| CCOC(=O)c1ccc(C(F)(F)F)c(O)n1 | 141 to 142 |
| CSc1c(O)ccc2[nH]ncc12 | 126 to 128 |
| CC(=O)SCC(C(=O)NC(Cc1ccc(O)c(O)c1)C(=O)O)C(F)(F)F (stereo unspecified) | 175 to 184 |
| COc1ccc2c(c1)C1(C)CC(=O)N(C)C1(O)CC2 (stereo unspecified) | 182 to 186 |
| O=C1c2cc(OCc3ccccn3)ccc2CC1Cc1ccccc1 (stereo unspecified) | 94 to 97 |
| CN(C)CCCCCCNC(=O)c1ccc(-c2nnc(CSCCOc3ccccc3)o2)cc1 | 86 to 93 |
| C[C@H]1[C@@H](C(C)(C)O)CCN1c1ccc(C#N)c2sccc12 | 146 to 147 |
| COc1cc2c(cc1OC)CN(c1nc(N)nc3cc(OC)c(OC)cc13)CC2 | 245 |
| COC(=O)c1ccc(C23CC4CC(CC(C4)C2)C3)c(O)c1 | 244 to 246 |
| CC(C)(C)OC(=O)N1CCC(CCOS(C)(=O)=O)CC1 | 60 to 63 |
| CC(=O)Oc1ccc(C(Cl)=CC=O)cc1[N+](=O)[O-] | 128 to 130 |
| Cc1oc(-c2cc3ccccc3s2)nc1COc1ccc(CCCC2OC(=O)NC2=O)cc1 (stereo unspecified) | 154 to 155 |
| O=S(=O)(CC1CCCCC1)c1nc[nH]n1 | 172 to 175 |
| Cc1c(SCCCSc2ccc3ncc([N+](=O)[O-])n3n2)ccnc1CSc1ncccn1 | 143 to 147 |
| COc1ccc(N(Cc2cnn(Cc3ccc(F)cc3)c2)C(=O)C2CCCc3c(O)cccc32)cc1 (stereo unspecified) | 143 to 146 |
| O=C(Nc1ccc2c(c1)CCC2)c1ccccc1Cl | 144 to 145 |
| CC(C)(OCc1cc2cc(C(F)(F)F)ccc2n1S(=O)(=O)c1ccccc1)C(=O)O | 134 to 136 |
| Nc1ccc(-c2cccc(Cl)c2)cc1C(O)(C1CC1)C1CC1 | 90 to 92 |
| COc1ccccc1CN[C@H]1CCCN[C@H]1Cc1ccccc1 (relative stereo) | > 241 |
| CN(C)CCCOc1ccc(-c2ccc(C(=O)O)cc2)cc1-c1ccc2c(c1)C(C)(C)CCC2(C)C | 199 |
| CN(C(=O)N1Cc2nc(C(O)c3ccccc3)n(Cc3ccccc3)c2CC1CO)c1ccccc1 (stereo unspecified) | 107 to 120 |
| O=C(O)c1cccc(-c2nc(-c3ccc(C(F)(F)F)cc3)cs2)c1 | 230 to 231 |

| Structure (SMILES) | melting point [°C] |
| --- | --- |
| Cc1oc(-c2ccco2)nc1COc1ccc(CON=C(CCCCC(=O)O)c2ccccc2)cc1 | 112 to 113 |
| COc1cccc(C(O)CNC(=C[N+](=O)[O-])NCCCl)c1 (stereo unspecified) | 127 to 130 |
| COc1cc2c(c3c1OC(C)(C)C3)C(c1cccc(N3CCNS3)c1)=NC(C)(C)C2 | 145 to 147 |
| COc1cc(-c2nc3ccc(OCCCN(C)C)cc3n2Cc2ccccc2C(F)(F)F)cc(OC)c1OC | 142 |
| O=c1cc(-c2ccc(O)c(Br)c2)oc2ncccc12 | 267 to 272 |
| COc1ccc(C(C)C)cc1-c1cc(-c2nnnn2CCc2ccccc2)c(OCc2ccccc2)cc1OCc1ccccc1 | 118 to 120 |
| CCNC(=O)N1C2=NC(C)(C)N(C)C(=O)N2c2ccccc21 | 127 to 131 |
| CCC(=O)N1CCC(NC(=O)Nc2ccc(Cl)c(C(F)(F)F)c2)CC1 | 182 to 184 |
| Cc1csc(=Nc2ccc(C(C)C(=O)O)c(Cl)c2)n1C (stereo unspecified) | 132 to 133 |
| O=C(O)Cn1cc(Cc2nc3c(F)c(F)cc(F)c3s2)c2ccc(Cl)cc21 | 194 to 195 |
| CC(C)(C)c1ccc(-c2ccc(C(=O)N=[N+]=[N-])s2)cc1 | 162 to 164 |
| CN(C)c1n[nH]c(=O)n1N | 205 |
| O=C(O)c1ccc(NC(=O)c2ccccc2-c2ccccc2)nc1 | 215 to 217 |
| Cc1cc(O)cc(N(C)C)c1 | 67 to 68 |
| O=C(OC(Cn1ccnc1)c1ccc2ccccc2c1)c1ccccc1 (stereo unspecified) | 219 to 220 |
| C[C@H](O)[C@H](CNC(=O)c1ccccc1)C(=O)O | 99 to 101 |
| Nc1nc(C2CCCCN2)ncc1-c1ccc(Cl)cc1Cl (stereo unspecified) | 169 |
| COC(=O)c1cc(Cl)cc([N+](=O)[O-])c1N | 110 to 111 |
| CCOC(=O)[C@H]1CCCN2CCc3c([nH]c4ccc(Cl)cc34)[C@@H]12 (racemic) | 88 to 90 |
| COc1cc2[nH]c(=O)c(=O)n(C)c2cc1[N+](=O)[O-] | 356 |
| CNc1ccc(C)nc1N | 112 to 113 |
| Cc1nn(C)cc1C(=O)Nc1ccc(OCC(C)(C)C)c(C#N)c1 | 193 to 194 |
| CCn1nc(-c2ccccc2F)nc1-c1ccccc1C(F)(F)F | 72 to 74 |
